Assays:
[1] = system: human epidermal keratinocytes; test: LPS-stimulated ATP secretion in keratinocytes; type: cell-based; conditions: 18 hours incubation, LPS 10 µg/ml 10 minutes, N = 8
Description: Keratinocytes were cultured in the same manner as in Example 1. Keratinocytes were cultured at 2.5 × 10^4 cells/well in a 24-well plate at 37°C in 5% CO2 for 4 days. The medium was replaced with a test solution (Hanks' balanced salt solution (HBSS) (manufactured by Gibco) supplemented with imeglimin, metformin, or clodronate), and then incubation was performed at 37°C in 5% CO2 for 18 hours. Thereafter, LPS (10 µg/ml) was added thereto, and incubation was further carried out for 10 minutes, followed by collection of 200 µl of the supernatant. The supernatant was immediately treated on a heat block at 95°C for 10 minutes, and ATP in the supernatant was quantified using an ATP Assay Kit - Luminescence (manufactured by Dojindo) (N = 8).

[2] = system: imiquimod-induced psoriasis; test: Imiquimod-induced psoriasis model; type: in vivo, mice; conditions: for auricular thickening and psoriatic symptoms: Example 21, N = 2
Description: Experimental psoriatic symptoms were induced in a mouse auricle by imiquimod. Six-week-old male C57BL/6 mice (N = 5) were acclimated for one week. On Days 1 to 7, 62.5 mg of 5% imiquimod cream (Beselna Cream 5%) (3.125 mg in terms of the active ingredient, manufactured by Mochida Pharmaceutical Co. Ltd.) was applied to the right auricle of the mice for 7 consecutive days (IMQ group). Once daily after the imiquimod application, the imeglimin administration group (IMQ + IMG group) received oral administration, at 40 mg/kg, of 500-mg Twymeeg (trademark) tablets (manufactured by Sumitomo Pharma Co. Ltd.) dissolved in physiological saline. The control group received an equal volume of physiological saline. On Day 8, the mice were euthanized by cervical dislocation, and auricle thickness was measured using a dial thickness gauge (manufactured by Adachi Sogyo Co., Ltd.).
Each excised mouse auricle was fixed in 4% paraformaldehyde at 4°C overnight. After ethanol substitution, the auricle was embedded in paraffin, sectioned using a rotary microtome Leica RM2165 (thickness, […]), and subjected to HE staining or immunohistochemical staining. For the immunohistochemical staining, the sections were deparaffinized, washed in xylene, and rehydrated through graded alcohols. The sections were incubated in DAKO at 95°C for 30 minutes. The sections were blocked at room temperature for 60 minutes and then incubated at room temperature for 2 hours to allow reaction with a TGM1 anti-rabbit polyclonal antibody (catalog number 12912-3-AP, manufactured by Proteintech). The sample was washed and then allowed to react with a secondary antibody (Alexa 544-conjugated secondary antibody (goat anti-rabbit IgG) (manufactured by Molecular Probes)) at room temperature for 60 minutes. After allowing reaction with DAPI at room temperature for 10 minutes, the sections were mounted with Fluoromount and imaged using a fluorescence microscope (BZ-X710, manufactured by Keyence).
The dorsal hair of mice was shaved and depilated (Day 0). To each of the left auricle and the depilated back of each mouse, 62.5 mg of 5% imiquimod cream (Beselna Cream 5%) was applied once daily a total of seven times (Days 1 to 7) in accordance with Example 18, to induce imiquimod-induced psoriasis (IMQ group). In the IMQ + IMG group, mice received oral administration of imeglimin (40 mg/kg) once daily (Day 1 to 7) after the imiquimod application. […] Thickness of the auricle was measured, and the degrees of erythema, desquamation, and infiltration in the affected area were rated on Days 1, 3, 5, 7, and 8 according to the PASI scoring of the DermNET Dermatology Resource (none: 0, mild: 1, moderate: 2, severe: 3, and very severe: 4). The resulting values were used to calculate the PASI score.
Further, for an auricle excised on Day 8, immunohistochemical staining was performed in the same manner as in Example 18, and auricular sections were imaged using a fluorescence microscope (BZ-X710; manufactured by Keyence Corporation).
On Days 1, 2, 3, 5, and 6, 62.5 mg of 5% imiquimod cream (Beselna Cream 5%) was applied to auricles of wild-type mice (IMQ) or VNUT knockout mice (VNUT KO + IMQ) to induce psoriatic symptoms. […] For a negative control, only 20% glycerin solution was applied. In IMQ + 1% IMG and IMQ + 0.1% IMG, 20% glycerin solution supplemented with 1% (w/v) imeglimin and 0.1% (w/v) imeglimin, respectively, was applied immediately after the imiquimod application. Further, in IMQ + 1% Clo and IMQ + 0.1% Clo, 20% glycerin solution supplemented with 1% (w/v) clodronate and 0.1% (w/v) clodronate, respectively, was applied immediately after the imiquimod application.

SMILES | ATP secretion upon LPS stimulation ([1]; 10 µM) | auricular thickening and psoriatic symptoms ([2]; topical 20% glycerin solution with 0.1% (w/v) clodronate) | auricular thickening and psoriatic symptoms ([2]; topical 20% glycerin solution with 1% (w/v) clodronate) | ATP secretion upon LPS stimulation ([1]; 1 µM) | epidermal desquamation and psoriatic symptoms of the auricle ([2]; Example 18, oral 40 mg/kg once daily, Days 1 to 7 (Twymeeg tablets dissolved in saline), N = 5) | auricle thickening induced by imiquimod ([2]; Example 18, oral 40 mg/kg once daily, Days 1 to 7, N = 5) | typical psoriatic symptoms (auricular thickness, desquamation, infiltration, PASI score), except erythema ([2]; Example 19, imeglimin 40 mg/kg orally once daily Day 1 to 7, N = 5) | effect compared with infliximab ([2]; Example 19, imeglimin 40 mg/kg orally versus infliximab 100 µg/mouse i.v.) | auricular thickening and psoriatic symptoms ([2]; topical 20% glycerin solution with 0.1% (w/v) imeglimin) | auricular thickening and psoriatic symptoms ([2]; topical 20% glycerin solution with 1% (w/v) imeglimin)
O=P(O)(O)C(Cl)(Cl)P(=O)(O)O [clodronate] | almost completely inhibited | the degree of auricular thickening was improved | the degree of auricular thickening was improved | – | – | – | – | – | – | –
C[C@H]1N=C(N(C)C)N=C(N)N1 [imeglimin] | almost completely inhibited | – | – | almost completely inhibited | eliminated epidermal desquamation and reduced the psoriatic symptoms | suppressed | reduced | almost equivalent, or imeglimin was more effective | no effect | the degree of auricular thickening was improved
